Data from patent US5399697A, “N,N',N'-trisubstituted-5-bisaminomethylene-1,3-dioxane-4,6-dione inhibitors of acyl-CoA:cholesterol-acyl transferase” (American Home Products Corporation, priority 1993, dated 1995).
Where two headings read alike, the source gives them in different places.

System: acyl-coenzyme A: cholesterol acyltransferase
Assay: Inhibition of ACAT / intracellular cholesterol esterification in vitro (procedure of Ross et al.)
Assay type: cell-based

| SMILES | % Inhibition (25 μM) [%] | IC50 (read-out: IC50) [nM] | % Inhibition (50 μM) [%] | IC50 [nM] |
| --- | --- | --- | --- | --- |
| CCCCC(CC)N(Cc1ccc(CC(C)(C)C)cc1)C(Nc1ccc(OC)cc1OC)=C1C(=O)OC(C)(C)OC1=O (stereo not drawn) [Compound 60, 5-[[(2,4-Dimethoxyphenyl)amino][[[4-(2,2-dimethylpropyl)phenyl]methyl](1-ethylpentyl)amino]-methylene]-2,2-dimethyl-1,3-dioxane-4,6-dione] | 99 | 540 | – | – |
| CCCCCCCN(Cc1ccc(C(C)(C)C)cc1)C(Nc1ccc(OCCCCC)cc1)=C1C(=O)OC(C)(C)OC1=O [Compound 24] | 96 | 2300 | – | – |
| CC1(C)OC(=O)C(=C(Nc2cccnc2)Nc2cc(C(C)(C)C)c(O)c(C(C)(C)C)c2)C(=O)O1 [Compound 82] | – | – | 94 | – |
| CC(C)Cc1ccc(CN(C(Nc2ccc(N(C)C)cc2)=C2C(=O)OC(C)(C)OC2=O)C(C)CN2CCOCC2)cc1 (stereo not drawn) [Compound 51] | 66 | – | – | – |
| CCCCCCCCCCN(Cc1ccc(C(C)(C)C)cc1)C(Nc1ccc(OC)cc1OC)=C1C(=O)OC(C)(C)OC1=O [Compound 65] | 98 | 2300 | – | – |
| CCCCCC(C)N(Cc1ccc(CCC(C)C)cc1)C(Nc1ccc(OC)cc1OC)=C1C(=O)OC(C)(C)OC1=O (stereo not drawn) [Compound 56, 5-[[(2,4-Dimethoxyphenyl)amino][[[4-(3-methylbutyl)phenyl]methyl](1-methylhexyl)amino]-methylene]-2,2-dimethyl-1,3-dioxane-4,6-dione] | 97 | 1400 | – | – |
| CN(C(Nc1cc(C(C)(C)C)c(O)c(C(C)(C)C)c1)=C1C(=O)OC(C)(C)OC1=O)c1ccccn1 [Compound 83] | – | – | 86 | – |
| COc1ccc(NC(=C2C(=O)OC(C)(C)OC2=O)N(Cc2ccc(CCC(C)C)cc2)C(CC(C)C)CC(C)C)c(OC)c1 [Compound 72, 5-[[(2,4-Dimethoxyphenyl)amino][[[4-(3-methylbutyl)phenyl]methyl][-3-methyl-1-(2-methylpropyl)butyl]amino]methylene]-2,2-dimethyl-1,3-dioxane-4,6-dione] | 98 | 1300 | – | – |
| CCCCCC(C)N(Cc1ccc(OCC(C)C)cc1)C(Nc1ccc(N(C)C)cc1)=C1C(=O)OC(C)(C)OC1=O (stereo not drawn) [Compound 63] | 99 | 90 | – | – |
| CCCCCCN(CCCCCC)C(Nc1ccc(F)cc1)=C1C(=O)OC(C)(C)OC1=O [Compound 3, 5-[(Dihexylamino)[(4-fluorophenyl)amino]methylene]-2,2-dimethyl-1,3-dioxane-4,6-dione] | – | 9000 | 77 | – |
| CCCCC(CC)N(Cc1ccc(CC(C)(C)C)cc1)C(Nc1ccc(N(C)C)cc1)=C1C(=O)OC(C)(C)OC1=O (stereo not drawn) [Compound 62] | 99 | 640 | – | – |
| CCCCCCCN(Cc1ccc(OCCC(C)C)cc1)C(Nc1cc(OC)c(OC)c(OC)c1)=C1C(=O)OC(C)(C)OC1=O [Compound 23] | 85 | 3500 | – | – |
| CC(C)CCc1ccc(CN(C(Nc2ccc(N(C)C)cc2)=C2C(=O)OC(C)(C)OC2=O)C(CC(C)C)CC(C)C)cc1 [Compound 73, 5-[[[4-(Dimethylamino)phenyl]amino][[[4-(3-methylbutyl)phenyl]methyl][3-methyl-1-(2-methylpropyl)butyl]amino]methylene]-2,2-dimethyl-1,3-dioxane-4,6-dione] | 97 | 1300 | – | – |
| COc1ccc(NC(NCC2(c3ccccc3)CCCC2)=C2C(=O)OC(C)(C)OC2=O)c(OC)c1 [Compound 9, 5-[[(2,4-Dimethoxyphenyl)amino][[(1-phenylcyclopentyl)methyl]amino]methylene]-2,2-dimethyl-1,3-dioxane-4,6-dione] | 98 | 5600 | – | – |
| CCCCCC(C)N(Cc1ccc(CCC(C)C)cc1)C(Nc1ccc(N(C)C)cc1)=C1C(=O)OC(C)(C)OC1=O (stereo not drawn) [Compound 57, 5-[[[4-(Dimethylamino)phenyl]amino][[[4-(3-methylbutyl)phenyl]methyl](1-methylhexyl)-amino]methylene]-2,2-dimethyl-1,3-dioxane-4,6-dione] | 96 | 410 | – | – |
| CCCCCCCN(Cc1ccc(C(C)(C)C)cc1)C(Nc1cc(OC)c(OC)c(OC)c1)=C1C(=O)OC(C)(C)OC1=O [Compound 69] | 98 | 2800 | – | – |
| CCCCCC(C)N(Cc1ccc(OCC(C)C)cc1)C(Nc1ccc(C)cc1C)=C1C(=O)OC(C)(C)OC1=O (stereo not drawn) [Compound 68] | 98 | 280 | – | – |

| SMILES | % Inhibition (25 μM) [%] | IC50 (read-out: IC50) [nM] | % Inhibition (50 μM) [%] | IC50 [nM] |
| --- | --- | --- | --- | --- |
| CCCCCCCN(Cc1ccc(C(C)(C)C)cc1)C(Nc1ccc(OCCCCCC)cc1)=C1C(=O)OC(C)(C)OC1=O [Compound 25, 5-[[[[4-(1,1-Dimethylethyl)phenyl]methyl]heptylamino][[4-(hexyloxy)phenyl]amino]methylene]2,2-dimethyl-3-dioxane-4,6-dione] | 94 | 500 | – | – |
| COc1ccc(NC(=C2C(=O)OC(C)(C)OC2=O)N(Cc2ccc(CC(C)(C)C)cc2)CC2(c3ccccc3)CCCC2)c(OC)c1 [Compound 10, 5-[[(2,4-Dimethoxyphenyl)amino][[[4-(2,2-dimethylpropyl)phenyl]methyl)][(1-penylcyclo-pentylmethyl]amino]methylene]-2,2-dimethyl-3-dioxane-4,6-dione] | 97 | 290 | – | – |
| COc1ccc(NC(=C2C(=O)OC(C)(C)OC2=O)N(Cc2ccc(CC(C)C)cc2)[C@@H](CO[Si](C)(C)C(C)(C)C)Cc2ccccc2)c(OC)c1 [Compound 11] | 98 | – | – | 2800 |
| CCCCCCCN(Cc1ccc(CCCCC)cc1)C(Nc1ccc(C(F)(F)F)cc1)=C1C(=O)OC(C)(C)OC1=O [Compound 17, 5-[[[4-(Trifluoromethyl)phenyl]amino][heptyl[(4-pentylphenyl)methyl]amino]methylene]-2,2-dimethyl-1,3-dioxane-4,6-dione] | 72 | – | – | – |
| CCCCCC(C)N(Cc1ccc(CC(C)(C)C)cc1)C(Nc1ccc(C)cc1C)=C1C(=O)OC(C)(C)OC1=O (stereo not drawn) [Compound 64] | 99 | 490 | – | – |
| CCCCCCCN(Cc1ccc(C(C)(C)C)cc1)C(Nc1ccc(OCCCC)cc1)=C1C(=O)OC(C)(C)OC1=O [Compound 19] | 98 | 2400 | – | – |
| CCCCCCCC/C=C\CCCCCCCCN(Cc1ccc(C(C)(C)C)cc1)C(Nc1ccc(OC)cc1OC)=C1C(=O)OC(C)(C)OC1=O [Compound 70, 5-[[(2,4-Dimethoxyphenyl)amino][[[4-(1,1-dimethylethyl)phenyl]methyl]((Z)-9-octadecenyl)-amino]methylene]-2,2-dimethyl-1,3-dioxane-2,4-dione] | 24 | – | – | – |
| CCCCCCCN(Cc1ccc(C(C)(C)C)cc1)C(Nc1ccc(F)cc1F)=C1C(=O)OC(C)(C)OC1=O [Compound 15] | – | – | 63 | – |
| CCCCCCCN(Cc1ccc(C(C)(C)C)cc1)C(Nc1ccc(F)cc1)=C1C(=O)OC(C)(C)OC1=O [Compound 67] | – | 4500 | 89 | – |
| CC(C)Cc1ccc(CN(C(Nc2ccc(N(C)C)cc2)=C2C(=O)OC(C)(C)OC2=O)C2CCN(Cc3ccccc3)CC2)cc1 [Compound 49, 5-[[[4-(Dimethylamino)phenyl]amino][[[4-(2-methylpropyl)phenyl]methyl][1-(phenylmethyl)-4-piperidinyl]amino]methylene]-2,2-dimethyl-1,3-dioxane-4,6-dione] | 80 | 4500 | – | – |
| CCCCCCCN(Cc1ccc(CCCCCC)cc1)C(Nc1ccc(F)cc1F)=C1C(=O)OC(C)(C)OC1=O [Compound 18, 5-[[(2,4-Difluorophenyl)amino][[(4-hexylphenyl)methyl]heptylamino]methylene]-2,2-dimethyl-1,3-dioxane-4,6-dione] | – | – | 60 | – |
| CCCCCC(C)N(Cc1ccc(CC(C)C)cc1)C(Nc1cc(C(C)(C)C)c(O)c(C(C)(C)C)c1)=C1C(=O)OC(C)(C)OC1=O (stereo not drawn) [Compound 13] | 99 | 190 | – | – |
| CCCCCCCN(Cc1ccc(C(C)(C)C)cc1)C(Nc1ccc(OCc2ccccc2)cc1)=C1C(=O)OC(C)(C)OC1=O [Compound 26] | 92 | 920 | – | – |
| CCCCc1ccc(CN(C(Nc2ccc(OC)cc2OC)=C2C(=O)OC(C)(C)OC2=O)C(C)CCCC(C)(C)O)cc1 (stereo not drawn) [Compound 44, 5-[[[(4-Butylphenyl)methyl](5-hydroxy-1,5-dimethylhexyl)amino][(2,4-dimethoxyphenyl)-amino]methylene]-2,2-dimethyl-1,3-dioxane-4,6-dione] | 82 | 15000 | – | – |
| CCCCCC(C)N(Cc1ccc(OCC(C)C)cc1)C(Nc1ccc(OC)cc1OC)=C1C(=O)OC(C)(C)OC1=O (stereo not drawn) [Compound 58, 5-[[(2,4-Dimethoxyphenyl)amino][(1-methylhexyl)[[4-(2-methylpropoxy)phenyl]methyl]-amino]methylene]-2,2-dimethyl-1,3-dioxane-4,6-dione] | 99 | 550 | – | – |
| COc1ccc(NC(=C2C(=O)OC(C)(C)OC2=O)N(Cc2ccc(CC(C)C)cc2)C(C)CN2CCOCC2)c(OC)c1 (stereo not drawn) [Compound 50, 5-[[(2,4-Dimethoxyphenyl)amino][[1-methyl-2-(4-morpholinyl)ethyl][[4-(2-methylpropyl)-phenyl]methyl]amino]methylene]-2,2-dimethyl-1,3-dioxane-4,6-dione] | 74 | – | – | – |
| COc1ccc(NC(=C2C(=O)OC(C)(C)OC2=O)N(Cc2ccc(CC(C)C)cc2)[C@@H](CO[Si](C)(C)C(C)(C)C)CC(C)C)c(OC)c1 [Compound 71] | 97 | – | – | 530 |
